Laboratory results: ChEMBL document CHEMBL4308841, “Synthesis, in vitro antiproliferative activity, and kinase inhibitory effects of pyrazole-containing diarylureas and diarylamides” (Eur J Med Chem, 2018)
pIC50: −log10 of the molar value.

What was measured:
MOLT-4 = test: Growth inhibition of human MOLT4 cells incubated for 48 hrs by sulforhodamine B assay; assay type: functional, cell-based; conditions: MOLT-4, 48 h
A549 [1] = test: Growth inhibition of human A549/ATCC cells incubated for 48 hrs by sulforhodamine B assay; assay type: functional, cell-based; conditions: A549, 48 h
HCC 2998 = test: Growth inhibition of human HCC2998 cells incubated for 48 hrs by sulforhodamine B assay; assay type: functional, cell-based; conditions: HCC 2998, 48 h
SK-MEL-2 = test: Growth inhibition of human SK-MEL-2 cells incubated for 48 hrs by sulforhodamine B assay; assay type: functional, cell-based; conditions: SK-MEL-2, 48 h
PC-3 [2] = test: Growth inhibition of human PC3 cells incubated for 48 hrs by sulforhodamine B assay; assay type: functional, cell-based; conditions: PC-3, 48 h
DU-145 [3] = test: Growth inhibition of human DU145 cells incubated for 48 hrs by sulforhodamine B assay; assay type: functional, cell-based; conditions: DU-145, 48 h
Hs-578T [4] = test: Growth inhibition of human Hs578T cells incubated for 48 hrs by sulforhodamine B assay; assay type: functional, cell-based
HL-60(TB) [5] = test: Growth inhibition of human HL-60(TB) cells assessed as cell growth at 0.01 uM incubated for 48 hrs by sulforhodamine B assay relative to control; assay type: functional; conditions: HL-60, 48 h, read-out: Activity
NCI-H522 = test: Growth inhibition of human NCI-H522 cells assessed as cell growth at 0.01 uM incubated for 48 hrs by sulforhodamine B assay relative to control; assay type: functional; conditions: NCI-H522, 48 h, read-out: Activity
HL-60(TB) [6] = test: Growth inhibition of human HL-60(TB) cells assessed as cell growth at 0.1 uM incubated for 48 hrs by sulforhodamine B assay relative to control; assay type: functional; conditions: HL-60, 48 h, read-out: Activity
RPMI-8226 = test: Growth inhibition of human RPMI8226 cells assessed as cell growth at 0.1 uM incubated for 48 hrs by sulforhodamine B assay relative to control; assay type: functional; conditions: RPMI-8226, 48 h, read-out: Activity
Malme-3M = test: Growth inhibition of human MALME-3M cells assessed as cell growth at 0.1 uM incubated for 48 hrs by sulforhodamine B assay relative to control; assay type: functional; conditions: read-out: Activity
OVCAR-3 = test: Growth inhibition of human OVCAR3 cells assessed as cell growth at 0.1 uM incubated for 48 hrs by sulforhodamine B assay relative to control; assay type: functional; conditions: OVCAR-3, 48 h, read-out: Activity
NCI/ADR-RES = test: Growth inhibition of human NCI/ADR-RES cells assessed as cell growth at 1 uM incubated for 48 hrs by sulforhodamine B assay relative to control; assay type: functional; conditions: read-out: Activity
CAKI-1 = test: Growth inhibition of human Caki1 cells assessed as cell growth at 1 uM incubated for 48 hrs by sulforhodamine B assay relative to control; assay type: functional; conditions: CAKI-1, 48 h, read-out: Activity
RXF 393 = test: Growth inhibition of human RXF393 cells assessed as cell growth at 1 uM incubated for 48 hrs by sulforhodamine B assay relative to control; assay type: functional; conditions: RXF 393, 48 h, read-out: Activity
DU-145 [7] = test: Growth inhibition of human DU145 cells assessed as cell growth at 1 uM incubated for 48 hrs by sulforhodamine B assay relative to control; assay type: functional; conditions: DU-145, 48 h, read-out: Activity
MCF7 = test: Growth inhibition of human MCF7 cells assessed as cell growth at 1 uM incubated for 48 hrs by sulforhodamine B assay relative to control; assay type: functional; conditions: MCF7, 48 h, read-out: Activity
A549 [8] = test: Growth inhibition of human A549/ATCC cells assessed as cell growth at 100 uM incubated for 48 hrs by sulforhodamine B assay relative to control; assay type: functional; conditions: A549, 48 h, read-out: Activity
SW-620 = test: Growth inhibition of human SW620 cells assessed as cell growth at 100 uM incubated for 48 hrs by sulforhodamine B assay relative to control; assay type: functional; conditions: SW-620, 48 h, read-out: Activity
SF-268 = test: Growth inhibition of human SF268 cells assessed as cell growth at 100 uM incubated for 48 hrs by sulforhodamine B assay relative to control; assay type: functional; conditions: SF-268, 48 h, read-out: Activity
SF-295 = test: Growth inhibition of human SF295 cells assessed as cell growth at 100 uM incubated for 48 hrs by sulforhodamine B assay relative to control; assay type: functional; conditions: SF-295, 48 h, read-out: Activity
OVCAR-4 = test: Growth inhibition of human OVCAR4 cells assessed as cell growth at 100 uM incubated for 48 hrs by sulforhodamine B assay relative to control; assay type: functional; conditions: OVCAR-4, 48 h, read-out: Activity
ACHN = test: Growth inhibition of human ACHN cells assessed as cell growth at 100 uM incubated for 48 hrs by sulforhodamine B assay relative to control; assay type: functional; conditions: read-out: Activity
UO-31 = test: Growth inhibition of human UO31 cells assessed as cell growth at 100 uM incubated for 48 hrs by sulforhodamine B assay relative to control; assay type: functional; conditions: UO-31, 48 h, read-out: Activity
PC-3 [9] = test: Growth inhibition of human PC3 cells assessed as cell growth at 100 uM incubated for 48 hrs by sulforhodamine B assay relative to control; assay type: functional; conditions: PC-3, 48 h, read-out: Activity
MDA-MB-231 = test: Growth inhibition of human MDA-MB-231 cells assessed as cell growth at 100 uM incubated for 48 hrs by sulforhodamine B assay relative to control; assay type: functional; conditions: MDA-MB-231, 48 h, read-out: Activity
Hs-578T [10] = test: Growth inhibition of human Hs578T cells assessed as cell growth at 100 uM incubated for 48 hrs by sulforhodamine B assay relative to control; assay type: functional; conditions: read-out: Activity
[11] = read-out: LC50 (the source's name)
[12] = read-out: pLC50 (the source's name) (converted)

COc1cc(Cl)cc(-c2nn(-c3cccc(NC(=O)c4cccc(C(F)(F)F)c4)c3)cc2-c2ccncc2)c1
GI50 (MOLT-4; read-out: GI50): 2730 nM
CC50 (MOLT-4; [11]): > 100 µM
TGI (MOLT-4; read-out: TGI): > 100 µM
GI50 (MOLT-4; read-out: pGI50 (converted)): 2750 nM
CC50 (MOLT-4; [12]): > 100 µM
TGI (MOLT-4; read-out: pTGI (converted)): > 100 µM
pIC50 (A549 [1]): 5.44
GI50 (A549 [1]; read-out: GI50): 3.52 µM
CC50 (A549 [1]; [11]): > 100 µM
TGI (A549 [1]; read-out: TGI): > 100 µM
GI50 (A549 [1]; read-out: pGI50 (converted)): 3.63 µM
CC50 (A549 [1]; [12]): > 100 µM
TGI (A549 [1]; read-out: pTGI (converted)): > 100 µM
GI50 (HCC 2998; read-out: GI50): 5.56 µM
CC50 (HCC 2998; [11]): > 100 µM
TGI (HCC 2998; read-out: TGI): > 100 µM
GI50 (HCC 2998; read-out: pGI50 (converted)): 6.61 µM
CC50 (HCC 2998; [12]): > 100 µM
TGI (HCC 2998; read-out: pTGI (converted)): > 100 µM
GI50 (SK-MEL-2; read-out: GI50): 0.78 µM
CC50 (SK-MEL-2; [11]): > 100 µM
TGI (SK-MEL-2; read-out: TGI): > 100 µM
GI50 (SK-MEL-2; read-out: pGI50 (converted)): 6.76 µM
CC50 (SK-MEL-2; [12]): > 100 µM
TGI (SK-MEL-2; read-out: pTGI (converted)): > 100 µM
pIC50 (PC-3 [2]): 5.57
GI50 (PC-3 [2]; read-out: GI50): 2710 nM
CC50 (PC-3 [2]; [11]): > 100 µM
TGI (PC-3 [2]; read-out: TGI): > 100 µM
GI50 (PC-3 [2]; read-out: pGI50 (converted)): 2690 nM
CC50 (PC-3 [2]; [12]): > 100 µM
TGI (PC-3 [2]; read-out: pTGI (converted)): > 100 µM
GI50 (DU-145 [3]; read-out: GI50): > 100 µM
CC50 (DU-145 [3]; [11]): > 100 µM
TGI (DU-145 [3]; read-out: TGI): > 100 µM
GI50 (DU-145 [3]; read-out: pGI50 (converted)): > 100 µM
CC50 (DU-145 [3]; [12]): > 100 µM
TGI (DU-145 [3]; read-out: pTGI (converted)): > 100 µM
GI50 (Hs-578T [4]; read-out: GI50): > 100 µM
CC50 (Hs-578T [4]; [11]): > 100 µM
TGI (Hs-578T [4]; read-out: TGI): > 100 µM
GI50 (Hs-578T [4]; read-out: pGI50 (converted)): > 100 µM
CC50 (Hs-578T [4]; [12]): > 100 µM
TGI (Hs-578T [4]; read-out: pTGI (converted)): > 100 µM
growth at 0.01 µM (HL-60(TB) [5]): 59%
growth at 0.01 µM (NCI-H522): 51%
growth at 0.1 µM (HL-60(TB) [6]): 90%
growth at 0.1 µM (RPMI-8226): 97%
growth at 0.1 µM (Malme-3M): 90%
growth at 0.1 µM (OVCAR-3): 108%
growth at 1 µM (NCI/ADR-RES): 89%
growth at 1 µM (CAKI-1): 90%
growth at 1 µM (RXF 393): 53%
growth at 1 µM (DU-145 [7]): 100%
growth at 1 µM (MCF7): 57%
growth at 100 µM (A549 [8]): 30%
growth at 100 µM (SW-620): 57%
growth at 100 µM (SF-268): 58%
growth at 100 µM (SF-295): 35%
growth at 100 µM (OVCAR-4): 74%
growth at 100 µM (ACHN): 40%
growth at 100 µM (UO-31): 37%
growth at 100 µM (PC-3 [9]): 17%
growth at 100 µM (MDA-MB-231): -14%
growth at 100 µM (Hs-578T [10]): 53%
